Test results published in patent US5776720A, “Assay reagent” (priority 1995, dated 1998).
Counter-ions that a name gives are not always drawn.

Columns and labels:
Type in all cases: cell-based, human
Parameters in all cases: unit not given here
Settings in all cases: normal donors
[1] = test system: lymphocytes; test: Normal leukocyte enzyme activity (Table 3A), lymphocytes
Excerpt: (§1) The measured fluorescence intensity can be converted from mean channel fluorescence (in peak or integrated mode) to MESF (molecules of equivalent soluble fluorochrome, Flow Cytometry Standards Corp. , San Juan, Puerto Rico) or International Units of hydrolysis per cell. A normal range of enzyme activity is established by assaying males and females in sufficient quantity to characterize the population levels statistically.
(§2) A normal in house adult donor pool was drawn, recording sex and determining that no known disease state was present at the time of sample draw. Criteria for rejecting samples included patients under medication, patients with infection or inflammation of any type, colds and flu as well as any known medical illness such as cancer, heart ailment and high blood pressure. A donor list of 75 patients has been developed and a mean and 2 sd range established. A subgroup of "super normals" was developed from this list by examining the 75 patients to determine which group falls closest to the mean for all enzymes in all cell types tested. These patients were used as the "wellness index" or best group of "normalcy" patients. If a study required the use of children or newborns then this same format was used to develop a data base for these age groups.

[2] = test system: monocytes; test: Normal leukocyte enzyme activity (Table 3A), monocytes
Excerpt: as §1, §2

[3] = test system: granulocytes; test: Normal leukocyte enzyme activity (Table 3A), granulocytes
Excerpt: as §1, §2

SMILES | NORMAL LEUKOCYTE ENZYME ACTIVITY, LYMPHS Mean [1] | NORMAL LEUKOCYTE ENZYME ACTIVITY, MONOS Mean [2] | NORMAL LEUKOCYTE ENZYME ACTIVITY, GRANS Mean [3]
C[C@H](N)C(=O)N[C@@H](C)C(=O)Nc1ccc2c(c1)Oc1cc(NC(=O)[C@H](C)NC(=O)[C@H](C)N)ccc1C21OC(=O)c2ccccc21 [AA--TFA, (H--L--Ala--Ala)2 Rho 110.2TFA] | 56.95 | 158.31 | 154.81
C[C@H](N)C(=O)Nc1ccc2c(c1)Oc1cc(NC(=O)[C@H](C)N)ccc1C21OC(=O)c2ccccc21 [ALA, (Ala)2 Rho 110] | 75.85 | 172.33 | 149.02
N=C(N)NCCC[C@H](N)C(=O)Nc1ccc2c(c1)Oc1cc(NC(=O)[C@@H](N)CCCNC(=N)N)ccc1C21OC(=O)c2ccccc21 (stereo partly drawn) [ARG, (H--L--Arg)2 Rho 110.4TFA] | 1.47 | 10.34 | 5.16
N[C@@H](CC(=O)O)C(=O)Nc1ccc2c(c1)Oc1cc(NC(=O)[C@@H](N)CC(=O)O)ccc1C21OC(=O)c2ccccc21 [ASP, (H--L--Asp)2 --Rho 110.2TFA] | 0.26 | 0.66 | 0.45
O=C(CCl)Oc1ccc2c(c1)Oc1cc(OC(=O)CCl)ccc1C21OC(=O)c2ccccc21 [CHLOAC, FL(chloroacetate)2] | 2.49 | 7.33 | 6.48
CC(=O)Oc1ccc2c(c1)Oc1cc(OC(C)=O)ccc1C21OC(=O)c2ccccc21 [DIACET 6.5, Fluorescein (acetate)2, reference compound] | 109.89 | 534.00 | 408.88
CC(=O)Oc1ccc2c(c1)Oc1cc(OC(C)=O)ccc1C21OC(=O)c2ccccc21 [DIACET 7.5, Fluorescein (acetate)2, reference compound] | 89.30 | 432.78 | 348.01
CCCC(=O)Oc1ccc2c(c1)Oc1cc(OC(=O)CCC)ccc1C21OC(=O)c2ccccc21 [DIBUT 6.5, FL(butyrate)2] | 4.08 | 10.37 | 6.43
CCCCCCC(=O)Oc1ccc2c(c1)Oc1cc(OC(=O)CCCCCC)ccc1C21OC(=O)c2ccccc21 [DIHEP 6.5, FL(heptanoate)2] | 9.17 | 32.25 | 18.57
CCCCCCC(=O)Oc1ccc2c(c1)Oc1cc(OC(=O)CCCCCC)ccc1C21OC(=O)c2ccccc21 [DIHEP 7.5, FL(heptanoate)2] | 9.73 | 36.15 | 20.41
CCCCCC(=O)Oc1ccc2c(c1)Oc1cc(OC(=O)CCCCC)ccc1C21OC(=O)c2ccccc21 [DIHEX 6.5, FL(hexanoate)2] | 15.10 | 72.87 | 33.84
CCCCCC(=O)Oc1ccc2c(c1)Oc1cc(OC(=O)CCCCC)ccc1C21OC(=O)c2ccccc21 [DIHEX 7.5, FL(hexanoate)2] | 7.54 | 37.22 | 17.57
CCCCCCCCCCCCCCCC(=O)Oc1ccc2c(c1)Oc1cc(OC(=O)CCCCCCCCCCCCCCC)ccc1C21OC(=O)c2ccccc21 [DIPAL 6.5, FL(palmitate)2] | 0.15 | 0.30 | 0.14
CCCCCCCCCCCCCCCC(=O)Oc1ccc2c(c1)Oc1cc(OC(=O)CCCCCCCCCCCCCCC)ccc1C21OC(=O)c2ccccc21 [DIPAL 7.5, FL(palmitate)2] | 0.14 | 0.30 | 0.14
CCC(=O)Oc1ccc2c(c1)Oc1cc(OC(=O)CC)ccc1C21OC(=O)c2ccccc21 [DIPRO 6.5, FL(propionate)2] | 86.11 | 441.65 | 349.18
CCC(=O)Oc1ccc2c(c1)Oc1cc(OC(=O)CC)ccc1C21OC(=O)c2ccccc21 [DIPRO 7.6, FL(propionate)2] | 96.34 |  | 429.17
CCCCC(=O)Oc1ccc2c(c1)Oc1cc(OC(=O)CCCC)ccc1C21OC(=O)c2ccccc21 [DIVAL 6.5, FL(valerate)2] | 33.13 | 184.51 | 92.81
O=C1OC2(c3ccc(OC4O[C@H](CO)[C@H](O)[C@H](O)[C@H]4O)cc3Oc3cc(OC4O[C@H](CO)[C@H](O)[C@H](O)[C@H]4O)ccc32)c2ccccc21 (stereo partly drawn) [GALAC, (D-galactose)2 fluorescein] | 0.38 | 5.94 | 1.58
CC(C)C[C@H](NC(=O)CN)C(=O)Nc1ccc2c(c1)Oc1cc(NC(=O)[C@H](CC(C)C)NC(=O)CN)ccc1C21OC(=O)c2ccccc21 [GL, (H Gly--Leu)2 Rho 110.2FTA] | 9.42 | 41.78 | 29.16
C[C@H](NC(=O)[C@@H](N)CCCCN)C(=O)Nc1ccc2c(c1)Oc1cc(NC(=O)[C@H](C)NC(=O)[C@@H](N)CCCCN)ccc1C21OC(=O)c2ccccc21 [KA, (Lys-Ala)2 Rho 110] | 11.47 | 39.35 | 29.15
C[C@H](NC(=O)[C@@H](N)CCCCN)C(=O)Nc1ccc2c(c1)Oc1cc(NC(=O)[C@H](C)NC(=O)[C@@H](N)CCCCN)ccc1C21OC(=O)c2ccccc21 [KA--M, (Lys-Ala)2 Rho 110] | 0.55 | 8.74 | 1.74
CC(C)C[C@H](NC(=O)[C@@H](N)CC(C)C)C(=O)N[C@@H](CCCNC(=N)N)C(=O)Nc1ccc2c(c1)Oc1cc(NC(=O)[C@H](CCCNC(=N)N)NC(=O)[C@H](CC(C)C)NC(=O)[C@@H](N)CC(C)C)ccc1C21OC(=O)c2ccccc21 (stereo partly shown) [LLR, (H--L Leu--Leu--Arg)2 Rho 110.4TFA] | 4.09 | 54.32 | 9.46
O=C1OC2(c3ccc(NC(=O)[C@@H]4CCCN4)cc3Oc3cc(NC(=O)[C@@H]4CCCN4)ccc32)c2ccccc21 [PRO, (H--L--Pro)2 --Rho 110.2TFA] | 1.70 | 6.83 | 9.19
NC(=O)CC[C@H](N)C(=O)N[C@@H](CO)C(=O)Nc1ccc2c(c1)Oc1cc(NC(=O)[C@H](CO)NC(=O)[C@@H](N)CCC(N)=O)ccc1C21OC(=O)c2ccccc21 [QS, (H--L--Gln--Ser)2 Rho 110.2TFA] | 1.70 | 10.66 | 4.67
N[C@@H](CO)C(=O)Nc1ccc2c(c1)Oc1cc(NC(=O)[C@@H](N)CO)ccc1C21OC(=O)c2ccccc21 [SER, (H--L--Ser)2 Rho 110.2TFA] | 1.35 | 6.49 | 3.40
CC(C)[C@H](N)C(=O)N[C@@H](CCCCN)C(=O)Nc1ccc2c(c1)Oc1cc(NC(=O)[C@H](CCCCN)NC(=O)[C@@H](N)C(C)C)ccc1C21OC(=O)c2ccccc21 [VK, (Val-Lys)2 Rho 110] | 1.87 | 20.38 | 
CC(C)[C@H](N)C(=O)N[C@@H](CO)C(=O)Nc1ccc2c(c1)Oc1cc(NC(=O)[C@H](CO)NC(=O)[C@@H](N)C(C)C)ccc1C21OC(=O)c2ccccc21 [VS, (H--L--Val--Ser)2 Rho 110.2TFA] | 3.81 | 19.61 | 8.27
